Experiments:
[1] = test system: bacteria; conditions: upon photoactivation; Gambro BCT abstracts 2001; cited from earlier work
[2] = test system: platelets; conditions: autologous transfusions performed in primates; cited from earlier work
[3] = test system: Salmonella thyphimurium; assay: Growth of Salmonella thyphimurium in PRP or PC fractions; assay type: cell-based; conditions: compared with air (FIG. 7)
Protocol: (§1) PC fractions were identically prepared from CO pretreated or untreated blood by consecutive centrifugation in a sterile environment using blood bank conditions. Bicarbonate (4% of PC volume) is than added from a stock solution of 750 mM while agitation to yield a final bicarbonate concentration of 30 mM. Next, the PC is treated with CO in a similar manner to whole blood. Alternatively, rather than applying a vacuum, the containers were flushed for 10 min. with sterile CO while agitating the containers, which were then sealed. The containers were allowed to stay at room temperature of 20-24° C.PRP platelets were treated similarly.
(§2) Control blood samples were packed under air in the same containers without any additional treatment allowing air transfer. In some experiments control of inert gas like nitrogen were used to exchange the air in the same manner as CO.
Whole blood or its factions were inoculated with pathogenic bacteria. Growth of the bacteria at room temperature was followed under different atmospheres (gas environments ). The blood fractions were platelets in plasma (PRP); concentrated platelets (PC) as currently stored in blood banks after removal of about three quarters of the plasma and the cell-free blood plasma. […]

[4] = test system: platelets; assay: Ability of stored platelets to aggregate upon activation by collagen (Plateletworks kit); assay type: cell-based, human
Protocol: An assessment of the potential of platelets to form aggregates upon activation by an agonist, preferably collagen, a typical physiological agonist, was performed, to determine the potential effect of carbon monoxide on this physiological function of platelets. The assay was performed as follows.
Fresh blood bank platelets, prepared as platelet concentrates (PC), were used. Each PC unit was divided. One part was stored without carbon monoxide treatment, which is the current method of preserving PC in blood banks. The other portion was sealed under carbon monoxide as previously described. Samples were preserved under sterile conditions at 20-23° C., while shaking gently. The ability of platelets to aggregate upon activation by collagen as an agonist was tested daily using a kit by Helena Laboratories (USA), called the Plateletworks kit. To allow platelet count and reduce anticoagulant activity, the PC was diluted 1:10 with the physiological buffer PBS pH 7.3. The whole individual platelets present were counted prior and after addition of the agonist, for this example collagen.
Therefore, the stored PC samples (control and stored under carbon monoxide) were tested for their ability to aggregate following two hours shaking under air after being removed from storage.

[5] = test system: Bulkholderia cepasea; assay: Growth of inoculated Bulkholderia cepasea in platelets stored as PRP; assay type: cell-based; conditions: 20-24° C., inoculated at 12 CFU/ml, compared with air (FIG. 5)
Protocol: as §1, with “Next, the PC is treated with CO in a similar manner to whole blood.” left out
(§3) Control blood samples were packed under air in the same containers without any additional treatment allowing air transfer. In some experiments control of inert gas like nitrogen were used to exchange the air in the same manner as CO. […]
(§4) For FIGS. 2-6, platelets were stored as PRP with agitation at room temperature (20-24° C.) in a blood bank rocking plane as for regular blood bank under air with gas exchange option (AIR); or sealed under nitrogen atmosphere (N2) or carbon monoxide atmosphere (CO). […] The amount of inoculated bacteria was adjusted to a range of 10-100 CFU/ml before inoculation, in which the exact final number of bacteria was been measured by plating the stock on suitable agar plates allowing growth and counting (the final initial counts are given in each case).

[6] = test system: Salmonella thyphimurium; assay: Growth of Salmonella thyphimurium in cells-free plasma; assay type: cell-based; conditions: plasma alone as source of nutrition (FIG. 8)
From the text: Whole blood or its factions were inoculated with pathogenic bacteria. Growth of the bacteria at room temperature was followed under different atmospheres (gas environments ). The blood fractions were platelets in plasma (PRP); concentrated platelets (PC) as currently stored in blood banks after removal of about three quarters of the plasma and the cell-free blood plasma.
FIG. 8 compares the growth of Salmonella thyphimurium in cells-free plasma under AIR, N2 and CO.

[7] = test system: platelets; assay: Platelet viability: leakage of LDH from stored platelets; assay type: cell-based, human
Protocol: as §1
The viability of the platelets under storage was tested in the form of PC because platelets are currently stored in this form, in order to be able to store and use the extra plasma in PRP separately. However, the PC environment lacks both red cells and plasma, such that platelets in this environment are more sensitive than in the PRP form to loss of viability. Without wishing to be limited to a single hypothesis, platelets in the form of PC may experience changes in pH, and therefore may lose the necessary pH neutrality of the environment. The viability of platelets stored as PC was investigated according to two parameters: drop of pH of the environment, and loss of membrane integrity of the cells themselves, leading to leakage of cellular proteins.
With regard to leakage of LDH, cell viability can also be evaluated according to membrane integrity. LDH (lactic dehydrogenase) is a stable enzyme which is normally active inside cells; when these cells have loss of membrane integrity, LDH is leaked outside the cells, such that higher levels of LDH activity are correlated with reduced platelet viability. The presence of LDH activity in platelet-free solution samples was measured in order to assess the viability of the platelet-containing fractions from which the samples were taken. […]

[8] = test system: Yersinia Enterocolitica; assay: Growth of inoculated Yersinia Enterocolitica in whole blood under different atmospheres; assay type: cell-based; conditions: room temperature, about 20 bacteria per ml inoculated, compared with air (FIG. 1)
Protocol: Freshly drawn whole blood was obtained from a human donor under sterile conditions, and stored in gas impermeable bags having a volume of at least 1.5 times that of the blood volume. The gas environment (or atmosphere) in the bag was then replaced by an atmosphere containing sterile CO by applying a low level vacuum with a water pump of 20 mm Hg. CO was immediately flushed through a 0.25 micron sterile filter. The bag was sealed and agitated for 15 minutes to allow equilibration. This procedure was repeated three times thereby exchanging the atmosphere in the bag and blood with CO. Saturation with carbon monoxide can be identified in hemoglobin in samples of the treated blood according to typical changes of the light absorption spectrum of the hemoglobin in the visible region by a shift from 577 nm (typical of oxy-hemoglobin) to 569 nm (typical of carbomonoxy-hemoglobin).
as §2
Whole blood or its factions were inoculated with pathogenic bacteria. Growth of the bacteria at room temperature was followed under different atmospheres (gas environments ). […]

[9] = test system: Bacilus cereus; assay: Growth of inoculated Bacilus cereus in platelets stored as PRP; assay type: cell-based; conditions: 20-24° C., inoculated at 18 CFU/ml, compared with air (FIG. 2)
Protocol: as §1, with “Next, the PC is treated with CO in a similar manner to whole blood.” left out
as §3, §4

[10] = test system: platelets; conditions: via binding to Guanylate Cyclase; Brune and Ullrich 1987; cited from earlier work
[11] = test system: Staphilococcus aereus; assay: Growth of inoculated Staphilococcus aereus in platelets stored as PRP; assay type: cell-based; conditions: 20-24° C., inoculated at 18 CFU/ml, compared with air (FIG. 6)
Protocol: as §1, with “Next, the PC is treated with CO in a similar manner to whole blood.” left out
as §3, §4

[12] = test system: E. coli (strain O 157); assay: Growth of inoculated E. coli in platelets stored as PRP; assay type: cell-based; conditions: 20-24° C., inoculated at 25 CFU/ml, compared with air (FIG. 3)
Protocol: as §1, with “Next, the PC is treated with CO in a similar manner to whole blood.” left out
as §3, §4

[13] = test system: human body; conditions: cited from earlier work
[14] = test system: Pseudomonas aeraginosa; assay: Growth of inoculated Pseudomonas aeraginosa in platelets stored as PRP; assay type: cell-based; conditions: 20-24° C., inoculated at 16 CFU/ml, compared with air (FIG. 4)
Protocol: as §1, with “Next, the PC is treated with CO in a similar manner to whole blood.” left out
as §3, §4

| SMILES | effectiveness for bacterial inactivation [1] | platelet survival rates [2] | growth of Salmonella thyphimurium in PC ([3]; PC, count at time zero 32 CFU/ml) | growth of Salmonella thyphimurium in PRP ([3]; PRP, count at time zero 16 CFU/ml) | ability to aggregate in response to collagen ([4]; PC stored under carbon monoxide, carbon monoxide replaced by air) | formation of aggregates upon exposure to collagen ([4]; PC stored under carbon monoxide, tested immediately after being exposed to air) | fraction of platelets able to form aggregates ([4]; PC, day 11, two hours shaking under air after storage, compared with same PC unit stored under air (FIGS. 11A-11C)) | growth of Bulkholderia cepasea in PRP [5] | growth of Salmonella thyphimurium in cells-free plasma [6] | LDH activity in the supernatant, a measure of leakage ([7]; PC, air vs CO vs CO with sodium bicarbonate (FIG. 10)) | viability of platelets in PC (LDH leakage) ([7]; PC, no additional bicarbonate, compared with air (FIG. 10)) | leakage of LDH (LDH activity in supernatant), platelets stored as PRP ([7]; PRP, compared with air, data not shown) | growth of inoculated Yersinia Enterocolitica in whole blood [8] | growth of Bacilus cereus in PRP [9] | aggregation of platelets [10] | growth of Staphilococcus aereus in PRP [11] | growth of E. coli (strain O 157) in PRP [12] | safety threshold or TLV, equivalent inhalation ([13]; equivalent of 8 hours per day at 20 ppm) | safety threshold or TLV for the human body ([13]; inhalation of 8 hours per day of air containing the gas) [ppm] | growth of Pseudomonas aeraginosa in PRP [14] |
| --- | --- | --- | --- | --- | --- | --- | --- | --- | --- | --- | --- | --- | --- | --- | --- | --- | --- | --- | --- | --- |
| Cc1cc2nc3c(=O)[nH]c(=O)nc-3n(C[C@H](O)[C@H](O)[C@H](O)CO)c2cc1C [riboflavin] | variable effectiveness | may even decrease platelet survival rates | – | – | – | – | – | – | – | – | – | – | – | – | – | – | – | – | – | – |
| [C-]#[O+] [carbon monoxide] | – | – | inhibited | significantly inhibited | regained their ability to aggregate | did not form aggregates | larger fraction | eliminated | inhibition of pathogen growth was maintained | similar, high levels | lost much faster than stored in air | equal or even somewhat lower than under air | completely inhibited | significantly inhibited | can inhibit aggregation | significantly inhibited | significantly inhibited | 10^4 ppm/minute | 20 | significantly inhibited |
| N#N [nitrogen, reference compound] | – | – | – | – | – | – | – | little or no effect | – | – | – | – | completely inhibited | little or no effect | – | little or no effect | little or no effect | – | – | little or no effect |

Reference: patent publication US20040109903A1, “Method for extended storage of viable and pathogen-safe blood and blood components using carbon monoxide” (priority 2002, published 2004)
